In patent publication US10173969B2, “Production of aniline via anthranilate” (Covestro Deutschland AG, priority 2014, dated 2019):

Key:
[1] = Kinetics of thermal decarboxylation in aqueous buffer solution without catalyst; assay type: physicochemical; settings: for k (rate coefficient of decarboxylation) / n (order of reaction of decarboxylation): buffer solution, no catalyst
Source text: (§1) In this experiment, the kinetics of the thermal decarboxylation of step b) of the method according to the invention was studied. […] In this case it was possible to decarboxylate anthranilate ion to aniline (ANL). AA, or o-aminobenzoate, respectively was either provided biologically by a recombinant microbial host as described in Example 1, or it was provided chemically, e.g. it was commercially obtained, e.g. from Sigma Aldrich, catalog no. A89855.
(§2) A buffer solution containing (NH4)2SO4 (20 g/L), Na2HPO4 (1 g/L) and KH2PO4 (1 g/L) in distilled water was prepared. Then AA 10 wt % was suspended in this solution. NH4OH solution (28-30% NH3) was added dropwise into this suspension until a clear yellow solution was formed. The pH of this ammonium anthranilate (NH4AA) solution was around 7. The ammonium anthranilate (3 wt %) solution was also prepared using this method.
80 mL of each of the above solutions was transferred into an autoclave 160 mL and heated to 160° C. or 180° C. and samples were taken at different time intervals to analyse the rate of aniline (ANL) formation.
Decarboxylation of AA 0.5 wt % and NH4AA 3 wt % in aqueous buffer solution was performed at 160° C. without using any catalyst. […] The kinetic model was established using the general reaction rate formula as below and considering the experimental data to calculate the optimized k and n parameters which are the rate coefficient and the order of reaction, respectively.
The kinetics of NH4AA 10 wt % decarboxylation at 160° C. and 180° C. was also studied using experimental data and a simulating model.

[2] = Solubility of ammonium anthranilate in buffer solution; assay type: physicochemical; settings: AA buffer solution with NH4OH added
Source text: as §1, §2

[3] = reaction temperature 160 °C, listed as NH4AA 10% in buffer solution

## Nc1ccccc1C(=O)O [AA 0.5% in buffer solution, anthranilic acid]
[1]; 160 °C, decarboxylation in water
  rate coefficient (k) relative to that of NH4AA 3 wt %: 6.8 times
[1]; reaction temperature 160 °C
  k (rate coefficient of decarboxylation): 0.0519 h⁻¹
  n (order of reaction of decarboxylation): 0.9207

## N.Nc1ccccc1C(=O)O [NH4AA 3% in buffer solution, ammonium anthranilate]
[1]; NH4AA 10 wt %
  rate coefficient at 180 °C relative to that at 160 °C: 36 times
[1]; reaction temperature 160 °C
  k (rate coefficient of decarboxylation): 0.00755 h⁻¹
  n (order of reaction of decarboxylation): 0.8706
[1]; [3]
  k (rate coefficient of decarboxylation): 0.000713 h⁻¹
  n (order of reaction of decarboxylation): 1.2758
[1]; reaction temperature 180 °C
  k (rate coefficient of decarboxylation): 0.026 h⁻¹
  n (order of reaction of decarboxylation): 0.9793

## N.Nc1ccccc1C(=O)O [ammonium anthranilate]
[2]
  solubility: up to 10%
